The subject of test [1] is LS174T colon cancer cells. The test is described as follows: Fatty acid analysis of treated cells. Format: cell-based. The method, then: Fatty acid analysis: Free and total fatty acids (after saponification) were prepared as reported previously (Spencer et al. Diabetes 62(5):1709-1717) converted to N-(4-aminomethylphenyl)pyridinium derivatives (Bollinger et al. J Lipid Res 54(12):3523-3530) and quantitated HPLC electrospray ionization tandem mass spectrometry with quantitation accomplished using exogenously added heptadecanoic acid as a recovery standard and reference to offline calibrations generated using authentic fatty acid standards.

Test [2] concerns PC-3 prostate cancer cells. The test can be described thus: Cancer cell proliferation (Vi-Cell viability and number). The conditions noted are these: 10 μM of compound. Format: cell-based. As to the method:
(§1) Cell Culture. LS74T colon cancer cells were cultured in MEM/EBSS (Hyclone SH30024) and PC-3 prostate cancer cells were cultured in DMEM/F-12 HAM Mixture (Sigma D8437) containing 10% Fetal Bovine Serum (Atlanta Biological S11150). Cells (3.5×10^4 cells per well) were split into 12-well plates. After 24 h, 10 μM of each compound were added to each well. DMSO was used as a control. Each experiment was done in triplicate. Cell viability and number were analyzed using the Vi-Cell XR Cell Viability Analyzer (Beckman Coulter). To knock-down HSD17B4 levels, PC-3 and LS174 cell lines were infected with lenti-virus carrying pLKO.1-control shRNA and pLKO.1-HSD17B4b shRNA, respectively. Control shRNA and HSD17B4b shRNA cloned in pLKO.1 vectors with puromycin-resistance selection marker were purchased from Sigma. Lentiviral stocks were prepared as previously described (Yu, 2012).

Test [3] concerns LS174T colon cancer cells. The description is as above. Format: cell-based. The conditions noted are these: 10 μM of compound. The method, then: as §1
The test system of test [4] is LS174T cancer cells. The test can be described thus: Acetyl-CoA analysis of treated cells. Format: cell-based. As to the method:
Cell Metabolism. Acetyl-CoA analysis: Cells grown in 6 cm plates were treated with DMSO or inhibitors, and harvested in lysis buffer (20 mM Tris pH 7.5, 150 mM NaCl, 1 mM EDTA, 1 mM EGTA, 1% Triton X-100, 2.5 mM sodium pyrophosphate, 1 mM Na3VO4, 1 ug/mL Leupeptin, 1 mM PMSF and 1:100 Protease inhibitor cocktail). Supernatants were analyzed using PicoProbe Acetyl CoA kit (Abcam, ab87546).

For test [5], the system named is p70. The test can be described thus: p70 phosphorylation, mTor pathway (Western blotting). It is filed as cell-based. Particulars: PC-3 and LS174T cells. The method, then:
Biochemistry. Western blotting: Cells were lysed in the appropriate volume of lysis buffer (50 mM HEPES, 100 mM NaCl, 2 mM EDTA, 1% glycerol, 50 mM NaF, 1 mM Na3VO4, 1% Triton X-100, with protease inhibitors). The following antibodies were used: HSD17B4 (GeneTex, GTX103864), AMPK (Cell Signaling, 2532), pAMPK (Cell Signaling, 2535), ACC (Cell Signaling, 3676), pACC (Cell Signaling, 11818), p^70 (Cell Signaling, 2708), p-p^70 (Cell Signaling, 9914), S6 (Cell Signaling, 2217), pS6 (Cell Signaling, 4858), MCCA (GeneTex, GTX110062), tubulin (Hybridoma Bank, E7), Actin (Sigma, A1978), His-tag (BD Pharmingen, 552564).
For orientation: A western blot detects proteins with antibodies after separation by electrophoresis.

Test [6] addresses T1, α,β-dehydrogenase activity of HSD17B4 (Homo sapiens, UniProt P51659).
T1 construct: His-tag; made in house; host or cells: E. coli BL21 (pET28)
T1 sequence (P51659 1-736): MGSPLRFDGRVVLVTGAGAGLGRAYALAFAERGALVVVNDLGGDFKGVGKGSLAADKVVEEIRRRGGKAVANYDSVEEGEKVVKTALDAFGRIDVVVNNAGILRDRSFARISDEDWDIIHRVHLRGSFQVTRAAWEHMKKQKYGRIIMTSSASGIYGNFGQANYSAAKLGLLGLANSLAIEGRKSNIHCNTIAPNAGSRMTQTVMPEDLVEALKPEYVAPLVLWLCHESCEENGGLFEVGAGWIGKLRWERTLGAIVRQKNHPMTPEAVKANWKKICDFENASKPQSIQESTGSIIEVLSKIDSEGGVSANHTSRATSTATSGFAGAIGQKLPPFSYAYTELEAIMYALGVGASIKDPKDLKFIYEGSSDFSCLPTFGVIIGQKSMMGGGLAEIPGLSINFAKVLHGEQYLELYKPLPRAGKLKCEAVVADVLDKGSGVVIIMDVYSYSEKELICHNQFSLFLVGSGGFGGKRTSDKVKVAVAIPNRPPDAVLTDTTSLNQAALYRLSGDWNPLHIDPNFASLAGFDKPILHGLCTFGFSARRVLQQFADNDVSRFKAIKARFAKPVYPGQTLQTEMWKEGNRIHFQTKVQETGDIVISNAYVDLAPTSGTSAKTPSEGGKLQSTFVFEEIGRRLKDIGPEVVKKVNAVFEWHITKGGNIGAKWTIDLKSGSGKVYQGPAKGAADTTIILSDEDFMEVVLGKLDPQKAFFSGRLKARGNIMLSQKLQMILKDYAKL
The test is described as follows: HSD17B4 dehydrogenase assay (NADH readout). Format: biochemical. The text has this:
We acquired further evidence along these lines through studies using the N-terminal α,β-dehydrogenase and C-terminal hydratase fragments of HSD17B4 as well as the full-length protein. We evaluated the α,β-dehydrogenase activity using DL-3-hydroxylbutyryl-CoA as a substrate and the conversion of NAD^+ to NADH as a readout. We concomitantly measured the hydratase activity using crotonoyl-CoA as a substrate and the diminished ultraviolet absorption of the α,β-unsaturated thioester chromophore as readout. The full-length protein, as expected, had both enzyme activities (FIGS. 7A and 7B). The C-terminal-truncated fragments N318 and N634 but not the N-terminal-truncation fragment C919 had α,β-dehydrogenase activity (FIG. 7A). The C-terminal fragment N634 and the N-terminal fragment C919, but not the C-terminal fragment N318, had hydratase activity (FIG. 7B), as summarized in FIG. 3A.
The enzymatic activities of HSD17B4 were analyzed using the method reported by Novikov et al. (J. Biol. Chem., 1994, 269, 27125). […] The reaction was quantified by measuring the fluorescent product NADH (excitation: 340 nm; emission 460 nm). […] The reaction was quantified by measuring the remaining substrate using absorbance at 280 nm.

`O=c1c(-c2ccc(Cl)cc2)coc2cc(OCCN3C[C@@H]4C[C@@H](C3)c3cccc(=O)n3C4)ccc12` [Compound 10c, (1 S,5S)-3-(2-((3-(4-chlorophenyl)-4-oxo-4H-chromen-7-yl)oxy)ethyl)-3,4,5,6-tetrahydro-1H-1,5-methanopyrido[1,2-a][1,5]diazocin-8(2H)-one]: the fatty acid levels result in test [1] is “reduced the levels of a number of fatty acids”. Also, in test [2], the “proliferation of PC-3 cells” value was “significantly inhibited the proliferation”. For the same molecule, the “proliferation of LS174T cells” value in test [3] is listed as “significantly inhibited the proliferation”. Moreover, the “level of acetyl CoA” value in test [4] is listed as “decreased the levels”. Besides, in test [5], the “phosphorylation of p70” value is “inhibited the phosphorylation”. In test [6], the “effect on α,β-dehydrogenase activity” value was “no effect”.
